Laboratory results published in patent publication US12441768B2, “Compositions and methods for treating endometriosis” (EndoMet Biosciences, Inc., priority 2018, dated 2025).
Substitutions are numbered along the chain they refer to. Where “and” joins values, the source holds several entries; their conditions need not be identical. Identical values can stand only once. Entries after “also recorded” stand apart in the source; their conditions may differ. Where a SMILES comes first, the peptide text is derived from it.

Key:
[1] = molecular target: T1, β-catenin and E-Cadherin interaction (Homo sapiens, UniProt P35222); assay: Competitive binding assay β-catenin / E-Cadherin-FC fusion; settings: immobilized biotinylated β-catenin, 50 nM E-Cadherin-FC fusion, varying amounts of peptide
T1 sequence (P35222 1-781): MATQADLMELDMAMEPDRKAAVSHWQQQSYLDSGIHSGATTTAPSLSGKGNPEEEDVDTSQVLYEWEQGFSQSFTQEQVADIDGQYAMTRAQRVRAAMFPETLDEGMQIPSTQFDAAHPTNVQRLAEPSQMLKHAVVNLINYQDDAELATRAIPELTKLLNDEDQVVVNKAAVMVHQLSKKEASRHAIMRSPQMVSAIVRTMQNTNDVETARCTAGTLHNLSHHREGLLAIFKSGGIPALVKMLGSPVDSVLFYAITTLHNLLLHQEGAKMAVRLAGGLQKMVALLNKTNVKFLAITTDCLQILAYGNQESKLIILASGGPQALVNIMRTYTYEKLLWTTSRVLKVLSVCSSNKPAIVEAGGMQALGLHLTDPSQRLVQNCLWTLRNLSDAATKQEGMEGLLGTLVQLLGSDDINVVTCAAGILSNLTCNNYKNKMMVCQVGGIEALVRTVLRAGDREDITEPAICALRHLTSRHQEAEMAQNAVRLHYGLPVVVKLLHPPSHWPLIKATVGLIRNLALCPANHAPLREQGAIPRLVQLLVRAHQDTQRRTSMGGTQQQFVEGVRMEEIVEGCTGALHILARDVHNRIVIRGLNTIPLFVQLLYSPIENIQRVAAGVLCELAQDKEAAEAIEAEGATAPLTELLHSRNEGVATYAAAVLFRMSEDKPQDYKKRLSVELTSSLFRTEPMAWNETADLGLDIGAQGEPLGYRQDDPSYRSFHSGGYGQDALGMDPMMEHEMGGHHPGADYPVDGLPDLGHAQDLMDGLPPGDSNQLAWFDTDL
Procedure: Competitive binding assays were performed (FIG. 3) wherein biotinylated β-catenin was immobilized on streptavidin plates and 50 nM E-Cadherin-FC fusion was added in the presence of varying amounts of the peptide inhibitors (SEQ ID NO: 42).

WNT pathway genes = assay: Human WNT Signaling Pathway RT2 Profiler PCR Array in primary cells; type: cell-based; settings: 48 h, compared with ICG001
Procedure: On-target activity of each peptide was assessed by the transcriptional activity of WNT pathway genes using Qiagen's Human WNT Signaling Pathway RT^2 Profiler PCR Array). Primary cells were administered the therapeutic peptide corresponding to SEQ ID NO: 42 for 48 h. RNA was extracted from the harvested cells and profiled on the array using rtPCR. The array contains 84 genes related to Wnt-mediated signal transduction, including ligands, receptors, downstream signaling molecules, and regulators of the Wnt canonical pathway, two non-canonical pathways, planar cell polarity, and a calcium ion-dependent pathway, 38 of which were assessed here. Positive control of ICG001, a known Wnt inhibitor, was also run on the RNA array to be used as a comparison.

β-catenin [2] = molecular target: T2, β-catenin (Mus musculus, UniProt Q02248); assay: Immunohistochemistry of β-catenin localization in lesions, area thresholding; type: in vivo; settings: IP daily for 3 weeks
T2 construct: from tissue; host or cells: endometriosis lesions of the mouse model
T2 sequence (Q02248 1-781): T1 sequence (P35222 1-781) with P706A
Procedure: Endometriosis was established in a mouse model of disease. Mice were allowed to establish endometriosis for 3 weeks. After the first 3 weeks, mice were then intraperitoneally treated daily for 3 weeks with the therapeutic peptides corresponding to SEQ ID NOs: 215 or 393 or untreated negative control. To assess the localization of the peptides and β-catenin, lesions from the endometriosis mouse model were assessed. On the last day of treatment, in order to visualize the peptide localization to the lesion(s), mice were dosed with a biotinylated tagged peptide therapeutic or control. Mice were euthanized, lesions were removed, and fixed in formalin for histology and immunohistochemistry. Fixed and sectioned lesions were incubated with antibodies specific for β-catenin (Cell Signaling, 1:100, Secondary: Fisher Scientific, Goat anti-Rabbit-647 1:200), streptavidin for biotinylated-therapeutic (Fisher Scientific, SA-405 1:100), and Sytox green for nucleus (Fisher Scientific, 1:300). Immunohistochemical negative controls were performed on lesion sections from all treatment groups using IgG non-specific antibodies (Rabbit-IgG, AbCam 1:100).
Quantification of β-catenin localization was performed using the Zeiss Blue Software via thresholding. Thresholding allows the software to calculate the area of staining using pixel intensity; therefore, a quantitative number for staining can be extrapolated for the different cellular compartments (See Table 6).

β-catenin [3] = molecular target: T3, β-catenin (Homo sapiens, UniProt P35222); assay: KD50 measurement using competitive fluorescence polarization (FP) with labelled TCF4; type: binding; settings: fluorescence polarization, β-catenin; listed as 2
T3 sequence (P35222 1-781): T1 sequence (P35222 1-781)
Outline: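 First, β-catenin at 100 nM is mixed with 5 nM labelled TCF4 at room temperature. Next, compound is added across serial dilutions (10 nM to 30 uM). Finally, fluorescence polarization is measured (ex 470 nm, em 520 nm); experiments are done three times.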

EMS lesions = settings: 5 mg/kg IP daily for three weeks, versus vehicle
Excerpt: Lesions were established in an EMS mouse model of endometriosis by intraperitoneal injection of minced GFP+ uterine tissue from a mouse into wild-type c57/b16 mice. […] Endometrial disease was established in the mice and allowed to progress for three weeks prior to the initiation of therapy.

Row | Inhibition of the β-catenin and E-Cadherin interaction [1] | % membrane bound β-catenin (staining area threshold), Average (β-catenin [2]; average of lesion samples) | % nuclear β-catenin (staining area threshold), Average (β-catenin [2]; average of lesion samples) | % nuclear β-catenin (staining area threshold) (β-catenin [2]; single lesion sample, listed as Peptide 2) | β-Cat FP Hill slope (β-catenin [3]) | SMILES | Inhibition of gene transcripts within the Wnt pathway (WNT pathway genes) | Activated macrophages (EMS lesions) | Relative numbers of activated macrophages, foam cells, polymorphonuclear neutrophils, B cells and T cells at the site of lesions (histology) (EMS lesions)
1 | None of the doses tested inhibited | – | – | – | – | CC[C@H](C)[C@H](NC(=O)[C@H](CC(C)C)NC(=O)[C@H](Cc1ccccc1)NC(=O)[C@H](Cc1c[nH]c2ccccc12)NC(=O)[C@@H](N)CCSC)C(=O)N[C@@H](CS)C(=O)N[C@@H](Cc1ccccc1)C(=O)N[C@@H](Cc1c[nH]c2ccccc12)C(=O)NCC(=O)O [SEQ ID NO: 42] (H-MWFLICFWG-OH) | outperformed the known positive control; also recorded: potent and specific Wnt inhibitor | – | –
2 | – | 46.4% | 1.0% | 0.8% and 1.2% and 1.1% | 0.82 | CCCC[C@@H]1NC(=O)[C@@H](NC(C)=O)CCCCNC(=O)C[C@@H](C(=O)O)NC(=O)[C@H](Cc2c[nH]c3ccccc23)NC(=O)[C@H](C)NC(=O)[C@H](CC)NC(=O)[C@H]([C@@H](C)CC)NC(=O)[C@H](CC(C)C)NC(=O)[C@H](CC2CCCCC2)NC(=O)[C@H](Cc2c[nH]c3ccccc23)NC1=O [SEQ ID NO: 215, Cyclo-Ac-K*Nle-W-Cha-LI-Abu-AWD*-COOH] (HELM PEPTIDE1{[ac].K.[Nle].W.[Cha].L.I.[Abu].A.W.D}$PEPTIDE1,PEPTIDE1,2:R3-11:R3$$$V2.0) | – | relative increase | increase in the relative numbers
